{
  "source": "the supplement of paper PMC10307832",
  "assay_in_all_cases": "relative viability (nuclei count vs DMSO), 5 days (fraction); higher = more cells survive",
  "key": {"[1]": {"test_system": "UMC-11", "how_it_was_run": "(§1)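 Five library-drug doses in √10 steps were combined with a fixed anchor-drug dose, or a single drug was given alone, by pin tool to lung cancer cell lines in 1536-well plates the day after seeding. Nuclei were stained and counted after 5 days. Relative viability is the nuclei count in treated wells over that in vehicle wells, taken as the median of duplicate plates.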"}, "[2]": {"test_system": "NCI-H23", "how_it_was_run": "as §1"}, "[3]": {"test_system": "NCI-H1993", "how_it_was_run": "as §1"}, "[4]": {"test_system": "ABC-1", "how_it_was_run": "as §1"}, "[5]": {"test_system": "A-427", "how_it_was_run": "as §1"}, "[6]": {"test_system": "LC-2-ad", "how_it_was_run": "as §1"}, "[7]": {"test_system": "NCI-H2228", "how_it_was_run": "as §1"}, "[8]": {"test_system": "NCI-H1734", "how_it_was_run": "as §1"}, "[9]": {"test_system": "HCC-15", "how_it_was_run": "as §1"}, "[10]": {"test_system": "SK-LU-1", "how_it_was_run": "as §1"}, "[11]": {"test_system": "NCI-H1650", "how_it_was_run": "as §1"}, "[12]": {"test_system": "NCI-H1793", "how_it_was_run": "as §1"}, "[13]": {"test_system": "EMC-BAC-2", "how_it_was_run": "as §1"}, "[14]": {"test_system": "COR-L23", "how_it_was_run": "as §1"}, "[15]": {"test_system": "NCI-H2023", "how_it_was_run": "as §1"}, "[16]": {"test_system": "NCI-H2405", "how_it_was_run": "as §1"}, "[17]": {"test_system": "NCI-H2009", "how_it_was_run": "as §1"}, "[18]": {"test_system": "ChaGo-K-1", "how_it_was_run": "as §1"}, "[19]": {"test_system": "HCC-366", "how_it_was_run": "as §1"}, "[20]": {"test_system": "HCC-78", "how_it_was_run": "as §1"}, "[21]": {"test_system": "NCI-H1944", "how_it_was_run": "as §1"}, "[22]": {"test_system": "HARA", "how_it_was_run": "as §1"}, "[23]": {"test_system": "NCI-H838", "how_it_was_run": "as §1"}, "[24]": {"test_system": "LK-2", "how_it_was_run": "as §1"}},
  "data": [
    {"compound": "C[C@@H]1CN(CC(=O)Nc2ccc3c(c2)Cc2cccc(-c4cc(=O)cc(N5CCOCC5)o4)c2S3)C[C@H](C)O1", "note": "+ Cc1nc(Nc2ncc(C(=O)Nc3c(C)cccc3Cl)s2)cc(N2CCN(CCO)CC2)n1 [Dasatinib] (partner 0.075 µM)", "values": [
      {"measurement": "relative viability", "setting": "[1]; first compound 0.04 µM", "value": 0.475},
      {"measurement": "relative viability", "setting": "[1]; first compound 0.1265 µM", "value": 0.478},
      {"measurement": "relative viability", "setting": "[1]; first compound 0.4 µM", "value": 0.505},
      {"measurement": "relative viability", "setting": "[1]; first compound 4 µM", "value": 0.448},
      {"measurement": "relative viability", "setting": "[2]; first compound 0.04 µM", "value": 0.751},
      {"measurement": "relative viability", "setting": "[2]; first compound 0.1265 µM", "value": 0.751},
      {"measurement": "relative viability", "setting": "[2]; first compound 0.4 µM", "value": 0.711},
      {"measurement": "relative viability", "setting": "[2]; first compound 4 µM", "value": 0.735},
      {"measurement": "relative viability", "setting": "[3]; first compound 0.04 µM", "value": 0.643},
      {"measurement": "relative viability", "setting": "[3]; first compound 0.1265 µM", "value": 0.626},
      {"measurement": "relative viability", "setting": "[3]; first compound 0.4 µM", "value": 0.556},
      {"measurement": "relative viability", "setting": "[3]; first compound 4 µM", "value": 0.641},
      {"measurement": "relative viability", "setting": "[4]; first compound 0.1265 µM", "value": 0.571},
      {"measurement": "relative viability", "setting": "[4]; first compound 0.4 µM", "value": 0.447},
      {"measurement": "relative viability", "setting": "[4]; first compound 4 µM", "value": 0.504},
      {"measurement": "relative viability", "setting": "[5]; first compound 0.04 µM", "value": 0.737},
      {"measurement": "relative viability", "setting": "[5]; first compound 0.1265 µM", "value": 0.719},
      {"measurement": "relative viability", "setting": "[5]; first compound 0.4 µM", "value": 0.729},
      {"measurement": "relative viability", "setting": "[5]; first compound 4 µM", "value": 0.669},
      {"measurement": "relative viability", "setting": "[6]; first compound 0.04 µM", "value": 0.583},
      {"measurement": "relative viability", "setting": "[6]; first compound 0.1265 µM", "value": 0.55},
      {"measurement": "relative viability", "setting": "[6]; first compound 0.4 µM", "value": 0.487},
      {"measurement": "relative viability", "setting": "[6]; first compound 4 µM", "value": 0.492},
      {"measurement": "relative viability", "setting": "[7]; first compound 0.04 µM", "value": 0.595},
      {"measurement": "relative viability", "setting": "[7]; first compound 0.1265 µM", "value": 0.498},
      {"measurement": "relative viability", "setting": "[7]; first compound 0.4 µM", "value": 0.423},
      {"measurement": "relative viability", "setting": "[7]; first compound 4 µM", "value": 0.383},
      {"measurement": "relative viability", "setting": "[8]; first compound 0.04 µM", "value": 0.475},
      {"measurement": "relative viability", "setting": "[8]; first compound 0.1265 µM", "value": 0.489},
      {"measurement": "relative viability", "setting": "[8]; first compound 0.4 µM", "value": 0.5},
      {"measurement": "relative viability", "setting": "[8]; first compound 4 µM", "value": 0.517},
      {"measurement": "relative viability", "setting": "[9]; first compound 0.04 µM", "value": 0.659},
      {"measurement": "relative viability", "setting": "[9]; first compound 0.1265 µM", "value": 0.6},
      {"measurement": "relative viability", "setting": "[9]; first compound 0.4 µM", "value": 0.531},
      {"measurement": "relative viability", "setting": "[9]; first compound 4 µM", "value": 0.455},
      {"measurement": "relative viability", "setting": "[10]; first compound 0.04 µM", "value": 0.206},
      {"measurement": "relative viability", "setting": "[10]; first compound 0.1265 µM", "value": 0.203},
      {"measurement": "relative viability", "setting": "[10]; first compound 0.4 µM", "value": 0.171},
      {"measurement": "relative viability", "setting": "[10]; first compound 4 µM", "value": 0.15},
      {"measurement": "relative viability", "setting": "[11]; first compound 0.04 µM", "value": 0.31},
      {"measurement": "relative viability", "setting": "[11]; first compound 0.1265 µM", "value": 0.293},
      {"measurement": "relative viability", "setting": "[11]; first compound 0.4 µM", "value": 0.301},
      {"measurement": "relative viability", "setting": "[11]; first compound 4 µM", "value": 0.244},
      {"measurement": "relative viability", "setting": "[12]; first compound 0.04 µM", "value": 0.403},
      {"measurement": "relative viability", "setting": "[12]; first compound 0.1265 µM", "value": 0.373},
      {"measurement": "relative viability", "setting": "[12]; first compound 0.4 µM", "value": 0.414},
      {"measurement": "relative viability", "setting": "[12]; first compound 4 µM", "value": 0.342},
      {"measurement": "relative viability", "setting": "[13]; first compound 0.04 µM", "value": 0.386},
      {"measurement": "relative viability", "setting": "[13]; first compound 0.1265 µM", "value": 0.34},
      {"measurement": "relative viability", "setting": "[13]; first compound 0.4 µM", "value": 0.394},
      {"measurement": "relative viability", "setting": "[13]; first compound 4 µM", "value": 0.413},
      {"measurement": "relative viability", "setting": "[14]; first compound 0.04 µM", "value": 0.588},
      {"measurement": "relative viability", "setting": "[14]; first compound 0.1265 µM", "value": 0.46},
      {"measurement": "relative viability", "setting": "[14]; first compound 0.4 µM", "value": 0.593},
      {"measurement": "relative viability", "setting": "[14]; first compound 4 µM", "value": 0.369},
      {"measurement": "relative viability", "setting": "[15]; first compound 0.04 µM", "value": 0.638},
      {"measurement": "relative viability", "setting": "[15]; first compound 0.1265 µM", "value": 0.512},
      {"measurement": "relative viability", "setting": "[15]; first compound 0.4 µM", "value": 0.415},
      {"measurement": "relative viability", "setting": "[15]; first compound 4 µM", "value": 0.342},
      {"measurement": "relative viability", "setting": "[16]; first compound 0.04 µM", "value": 0.226},
      {"measurement": "relative viability", "setting": "[16]; first compound 0.1265 µM", "value": 0.187},
      {"measurement": "relative viability", "setting": "[16]; first compound 0.4 µM", "value": 0.229},
      {"measurement": "relative viability", "setting": "[16]; first compound 4 µM", "value": 0.169},
      {"measurement": "relative viability", "setting": "[17]; first compound 0.04 µM", "value": 0.383},
      {"measurement": "relative viability", "setting": "[17]; first compound 0.1265 µM", "value": 0.29},
      {"measurement": "relative viability", "setting": "[17]; first compound 0.4 µM", "value": 0.305},
      {"measurement": "relative viability", "setting": "[17]; first compound 4 µM", "value": 0.155},
      {"measurement": "relative viability", "setting": "[18]; first compound 0.04 µM", "value": 0.603},
      {"measurement": "relative viability", "setting": "[18]; first compound 0.1265 µM", "value": 0.617},
      {"measurement": "relative viability", "setting": "[18]; first compound 0.4 µM", "value": 0.553},
      {"measurement": "relative viability", "setting": "[18]; first compound 4 µM", "value": 0.524},
      {"measurement": "relative viability", "setting": "[19]; first compound 0.04 µM", "value": 0.7},
      {"measurement": "relative viability", "setting": "[19]; first compound 0.1265 µM", "value": 0.636},
      {"measurement": "relative viability", "setting": "[19]; first compound 0.4 µM", "value": 0.427},
      {"measurement": "relative viability", "setting": "[19]; first compound 4 µM", "value": 0.529},
      {"measurement": "relative viability", "setting": "[20]; first compound 0.04 µM", "value": 0.366},
      {"measurement": "relative viability", "setting": "[20]; first compound 0.1265 µM", "value": 0.363},
      {"measurement": "relative viability", "setting": "[20]; first compound 0.4 µM", "value": 0.362},
      {"measurement": "relative viability", "setting": "[20]; first compound 4 µM", "value": 0.519},
      {"measurement": "relative viability", "setting": "[21]; first compound 0.04 µM", "value": 0.21},
      {"measurement": "relative viability", "setting": "[21]; first compound 0.1265 µM", "value": 0.236},
      {"measurement": "relative viability", "setting": "[21]; first compound 0.4 µM", "value": 0.263},
      {"measurement": "relative viability", "setting": "[21]; first compound 4 µM", "value": 0.264},
      {"measurement": "relative viability", "setting": "[22]; first compound 0.1265 µM", "value": 0.204},
      {"measurement": "relative viability", "setting": "[22]; first compound 0.4 µM", "value": 0.34},
      {"measurement": "relative viability", "setting": "[22]; first compound 4 µM", "value": 0.258},
      {"measurement": "relative viability", "setting": "[23]; first compound 0.04 µM", "value": 0.27},
      {"measurement": "relative viability", "setting": "[23]; first compound 0.1265 µM", "value": 0.233},
      {"measurement": "relative viability", "setting": "[23]; first compound 0.4 µM", "value": 0.221},
      {"measurement": "relative viability", "setting": "[23]; first compound 4 µM", "value": 0.188},
      {"measurement": "relative viability", "setting": "[24]; first compound 0.1265 µM", "value": 0.301},
      {"measurement": "relative viability", "setting": "[24]; first compound 0.4 µM", "value": 0.336},
      {"measurement": "relative viability", "setting": "[24]; first compound 4 µM", "value": 0.437}
    ]}
  ]
}
